From patent US9139568B2 (Merck Patent GmbH, priority 2011, dated 2015)
pIC50: −log10 of the molar value.

Experiments:
[1] = molecular target: AKT (Homo sapiens (Human), UniProt P31749); test: AKT Enyzme Assay; assay type: biochemical; settings: His-AKT (Full Length), 160 uM ATP, mobility shift (Caliper)
Experimental: A TTP Mosquito liquid handling instrument is used to place 125 nl of the appropriate concentration of inhibitor in 100% DMSO (for a dose response curve calculation) into each well of a 384-well plate.
The reaction is incubated for 90 min at 25 C, and then stopped by the addition of 70 μl of Stop buffer (100 mM HEPES pH 7.5, 0.015% Brij-35, 10 mM EDTA (Sigma, E7889)).
The plate is read on a Caliper LC 3000 in an Off-Chip mobility shift assay format, using the following parameters for a 12-sipper chip: screening pressure −2.3 psi, upstream voltage −500, and downstream voltage −3000. These conditions cause unphosphorylated substrate and phosphorylated product peptide to resolve as separate peaks allowing direct measurement of percentage of conversion of substrate to product. The percent conversion can be plotted against concentration of inhibitor to produce a sigmoidal dose response curve, from which an IC50 can be calculated.

[2] = molecular target: P70S6K (Homo sapiens (Human), UniProt P23443, T412E); test: P70S6K Enzyme Assay; assay type: biochemical; settings: P70S6K T412E mutant, 24 μM ATP, mobility shift (Caliper)
Chain of P70S6K (P23443 1-421 T412E): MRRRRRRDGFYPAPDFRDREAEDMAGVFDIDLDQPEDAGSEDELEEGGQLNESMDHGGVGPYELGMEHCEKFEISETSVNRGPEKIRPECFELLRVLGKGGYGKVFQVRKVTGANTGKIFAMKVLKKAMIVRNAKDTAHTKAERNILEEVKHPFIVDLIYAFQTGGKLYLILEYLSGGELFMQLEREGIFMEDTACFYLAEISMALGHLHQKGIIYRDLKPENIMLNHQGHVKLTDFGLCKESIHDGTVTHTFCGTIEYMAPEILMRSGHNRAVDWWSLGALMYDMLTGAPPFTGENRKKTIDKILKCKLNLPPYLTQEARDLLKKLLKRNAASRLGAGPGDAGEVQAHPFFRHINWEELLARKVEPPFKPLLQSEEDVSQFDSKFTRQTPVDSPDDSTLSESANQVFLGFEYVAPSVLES
Experimental: P70S6K inhibitor compounds are diluted and plated in 96 well plates. […] The reaction is incubated for 90 min at 25° C., before the addition of 10 mM EDTA to stop the reaction. The proportion of substrate and product (phosphorylated) peptide is analysed on a Caliper Life Sciences Lab Chip 3000, using a pressure of −1.4 psi, and upstream and downstream voltages of −3000 and −700 respectively. Product peaks are resolved before substrate peaks on the resulting chromatograms.

Chain of AKT (P31749 whole entry): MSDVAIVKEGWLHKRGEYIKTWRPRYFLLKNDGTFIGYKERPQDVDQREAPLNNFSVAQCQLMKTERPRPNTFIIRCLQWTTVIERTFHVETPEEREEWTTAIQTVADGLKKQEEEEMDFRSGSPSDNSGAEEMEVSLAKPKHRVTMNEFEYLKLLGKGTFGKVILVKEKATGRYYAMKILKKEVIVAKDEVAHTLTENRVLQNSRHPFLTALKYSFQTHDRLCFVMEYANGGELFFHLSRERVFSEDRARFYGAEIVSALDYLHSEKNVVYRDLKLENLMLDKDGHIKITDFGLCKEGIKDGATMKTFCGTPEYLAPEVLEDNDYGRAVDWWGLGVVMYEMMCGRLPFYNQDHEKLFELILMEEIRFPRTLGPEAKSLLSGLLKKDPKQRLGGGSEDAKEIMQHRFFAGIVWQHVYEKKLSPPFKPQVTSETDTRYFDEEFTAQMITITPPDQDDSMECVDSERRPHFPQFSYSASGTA

Row | pIC50 [1] | pIC50 [2] | SMILES
1 | < 4.00 | 4.25 | NCC1CCCN(c2ccc(C(N)=O)c3ncncc23)C1 (racemic) [Example 56, 5-(3-(aminomethyl)piperidin-1-yl)quinazoline-8-carboxamide]
2 | < 4.00 | 4.70 | CN1CCC(Nc2ccc(C(N)=O)c3ncncc23)C1 (racemic) [Example 58, 5-((1-methylpyrrolidin-3-yl)amino)quinazoline-8-carboxamide]
3 | 4.74 | 5.23 | CNCC1CCCN(c2ccc(C(N)=O)c3ncncc23)C1 (racemic) [Example 59, 5-(3-((methylamino)methyl)piperidin-1-yl)quinazoline-8-carboxamide]
4 | 5.51 | 6.62 | NC(=O)c1ccc(N2CCC(CCc3ccccc3)C2)c2cncnc12 (racemic) [Example 64, 5-(3-phenethylpyrrolidin-1-yl)quinazoline-8-carboxamide]
5 | < 4.00 | 6.15 | NC(=O)c1ccc(N2CCC(OCc3ccccc3)C2)c2cncnc12 (racemic) [Example 65, 5-(3-(benzyloxy)pyrrolidin-1-yl)quinazoline-8-carboxamide]
6 | < 4.00 | 5.74 | NC(=O)c1ccc(N2CCC(O)(c3ccccc3)C2)c2cncnc12 (racemic) [Example 66, 5-(3-hydroxy-3-phenylpyrrolidin-1-yl)quinazoline-8-carboxamide]
7 | 5.00 | – | NC(=O)c1ccc(NCC(c2ccccc2)N2CCNCC2)c2cncnc12 (racemic) [Example 69, 5-((2-phenyl-2-(piperazin-1-yl)ethyl)amino)quinazoline-8-carboxamide]
8 | 5.09 | 6.42 | NC(=O)c1ccc(N2CCC(c3cccc(C(F)(F)F)c3)C(N)C2)c2cncnc12 (racemic) [Example 107, 5-[3-Amino-4-(3-trifluoromethyl-phenyl)-piperidin-1-yl]-quinazoline-8-carboxylic acid amide]
9 | < 4.00 | 4.66 | Cc1cccc(N2CCC(Nc3ccc(C(N)=O)c4ncncc34)CC2)c1 [Example 57, 5-((1-(m-tolyl)piperidin-4-yl)amino)quinazoline-8-carboxamide]
10 | < 4.00 | 5.32 | NC(=O)c1ccc(NC[C@@H]2CCNC2)c2cncnc12 [Example 60, (R)-5-((pyrrolidin-3-ylmethyl)amino)quinazoline-8-carboxamide]
11 | < 4.00 | 5.77 | NC(=O)c1ccc(NC[C@H]2CCNC2)c2cncnc12 [Example 61, (S)-5-((pyrrolidin-3-ylmethyl)amino)quinazoline-8-carboxamide]
12 | 5.09 | 6.72 | Cc1cccc([C@@H]2CN(c3ccc(C(N)=O)c4ncncc34)C[C@H]2CO)c1 [Example 67, 5-((3S,4R)-3-(hydroxymethyl)-4-(m-tolyl)pyrrolidin-1-yl)quinazoline-8-carboxamide]
13 | 5.05 | 6.41 | Cc1cccc(C2CCNCC2Nc2ccc(C(N)=O)c3ncncc23)c1 (centres unmarked) [Example 73, 5-((4-(m-tolyl)piperidin-3-yl)amino)quinazoline-8-carboxamide]
14 | < 4.00 | 4.62 | NC(=O)c1ccc(N2CCN(c3ccc(C(F)(F)F)cc3)CC2)c2cncnc12 [Example 90, 5-[4-(4-Trifluoromethyl-phenyl)-piperazin-1-yl]-quinazoline-8-carboxylic acid amide]
15 | 4.82 | 5.52 | NC(=O)c1ccc(N2CCN(c3ccccc3)CC2)c2cncnc12 [Example 91, 5-[4-phenyl-piperazin-1-yl]-quinazoline-8-carboxylic acid amide]
16 | < 4.00 | 6.00 | NC(=O)c1ccc(N2CCN(c3ccc(F)c(F)c3)CC2)c2cncnc12 [Example 92, 5-[4-(3,4-difluoro-phenyl)-piperazin-1-yl]-quinazoline-8-carboxylic acid amide]
17 | < 4.00 | 4.92 | NC(=O)c1ccc(N2CCN(c3ccc(F)c(Cl)c3)CC2)c2cncnc12 [Example 94, 5-[4-(3-chloro-4-fluorophenyl)-piperazin-1-yl]-quinazoline-8-carboxylic acid amide]
18 | 5.19 | 6.11 | NC(=O)c1ccc(N2CCN(c3cccc(F)c3)CC2)c2cncnc12 [Example 95, 5-[4-(3-fluoro-phenyl)-piperazin-1-yl]-quinazoline-8-carboxylic acid amide]
19 | < 4.00 | 5.00 | NC(=O)c1ccc(N2CCN(c3cccc(Cl)c3)CC2)c2cncnc12 [Example 96, 5-[4-(3-chloro-phenyl)-piperazin-1-yl]-quinazoline-8-carboxylic acid amide]
20 | – | 6.01 | Cc1ccccc1N1CCN(c2ccc(C(N)=O)c3ncncc23)CC1 [Example 120, 5-[4-(2-methyl-phenyl)-piperazin-1-yl]-quinazoline-8-carboxylic acid amide]
21 | – | 4.92 | NC(=O)c1ccc(N2CCN(c3ccccc3F)CC2)c2cncnc12 [Example 121, 5-[4-(2-fluorophenyl)-piperazin-1-yl]-quinazoline-8-carboxylic acid amide]
22 | – | 4.96 | COc1ccccc1N1CCN(c2ccc(C(N)=O)c3ncncc23)CC1 [Example 122, 5-[4-(2-methoxyphenyl)-piperazin-1-yl]-quinazoline-8-carboxylic acid amide]

The remaining lines, values behind:

Row | SMILES | pIC50 [1] | pIC50 [2]
23 | CN(C)C(CNc1ccc(C(N)=O)c2ncncc12)c1cccc(Cl)c1 (racemic) [Example 68, 5-((2-(3-chlorophenyl)-2-(dimethylamino)ethyl)amino)quinazoline-8-carboxamide] | < 4.00 | 5.59
24 | NC(=O)c1ccc(N[C@H]2CNCC[C@@H]2c2ccc(F)c(Cl)c2)c2cncnc12 (single isomer, unassigned) [Example 77] | 6.07 | 7.30
25 | NC(=O)c1ccc(N[C@@H]2CNCC[C@H]2c2ccc(F)c(Cl)c2)c2cncnc12 (single isomer, unassigned) [Example 78] | 5.24 | 6.46
26 | NC(=O)c1ccc(N[C@H]2CNCC[C@@H]2c2ccc(F)cc2)c2cncnc12 (single isomer, unassigned) [Example 80] | 5.66 | 6.54
27 | NC(=O)c1ccc(N[C@@H]2CNCC[C@H]2c2ccc(F)cc2)c2cncnc12 (single isomer, unassigned) [Example 81] | 6.05 | 7.28
28 | NC(=O)c1ccc(NCc2cccnc2)c2cncnc12 [Example 62, 5-((pyridin-3-ylmethyl)amino)quinazoline-8-carboxamide] | 4.15 | 5.80
29 | NC(=O)c1ccc(NCc2cccc(Cl)c2)c2cncnc12 [Example 63, 5-((3-chlorobenzyl)amino)quinazoline-8-carboxamide] | 4.92 | 7.23
30 | NC(=O)c1ccc(NC2CCNCC2c2ccc(F)cc2)c2cncnc12 (centres unmarked) [Example 70, 5-((3-(4-fluorophenyl)piperidin-4-yl)amino)quinazoline-8-carboxamide] | 5.60 | 6.26
31 | NC(=O)c1ccc(NC2CNCC2c2cccc(C(F)(F)F)c2)c2cncnc12 (centres unmarked) [Example 71, 5-((4-(3-(trifluoromethyl)phenyl)pyrrolidin-3-yl)amino)quinazoline-8-carboxamide] | 5.35 | 7.68
32 | NC(=O)c1ccc(NC2CNCC2c2cccc(OC(F)(F)F)c2)c2cncnc12 (centres unmarked) [Example 72, 5-((4-(3-(trifluoromethoxy)phenyl)pyrrolidin-3-yl)amino)quinazoline-8-carboxamide] | < 4.00 | 7.00
33 | NC(=O)c1ccc(NC2CNCCC2c2cccc(C(F)(F)F)c2)c2cncnc12 (centres unmarked) [Example 74, 5-((4-(3-(trifluoromethyl)phenyl)piperidin-3-yl)amino)quinazoline-8-carboxamide] | 5.68 | 6.85
34 | NC(=O)c1ccc(NC2CNCCC2c2ccc(Cl)c(F)c2)c2cncnc12 (centres unmarked) [Example 75, 5-((4-(4-chloro-3-fluorophenyl)piperidin-3-yl)amino)quinazoline-8-carboxamide] | 6.89 | 8.09
35 | NC(=O)c1ccc(NC2CNCCC2c2ccc(F)c(Cl)c2)c2cncnc12 (centres unmarked) [Example 76, 5-((4-(3-chloro-4-fluorophenyl)piperidin-3-yl)amino)quinazoline-8-carboxamide] | 6.24 | 7.48
36 | NC(=O)c1ccc(NC2CNCCC2c2ccc(F)cc2)c2cncnc12 (centres unmarked) [Example 79, 5-((4-(4-fluorophenyl)piperidin-3-yl)amino)quinazoline-8-carboxamide] | 5.70 | 6.54
37 | NC(=O)c1ccc(NCCc2ccccc2)c2cncnc12 [Example 98, 5-(phenethylamino)quinazoline-8-carboxamide] | 5.25 | 7.05
38 | NC(=O)c1ccc(NCCc2cccc(F)c2)c2cncnc12 [Example 99, 5-[2-(3-fluorophenyl)ethylamino]quinazoline-8-carboxamide] | 5.62 | 6.92
39 | NC(=O)c1ccc(NCCc2ccc(F)cc2)c2cncnc12 [Example 100, 5-[2-(4-fluorophenyl)ethylamino]quinazoline-8-carboxamide] | 5.32 | 6.54
